Surface tension liquid-gas data for 1 compound are collected here from the NIST ThermoML archive (doi:10.1021/acs.jced.8b00372).

The conditions of this data set: 313.15 K, Ring tensiometer.

± gives the expanded uncertainty stated by the source.

As for `O` [water], the surface tension liquid-gas worked out at 67.2 ± 2.8 mN/m.
